According to ChEMBL document CHEMBL1201862, “PubChem BioAssay data set” (2004):
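Following 48 hours of exposure in 96-well plates, responses at five concentrations were used to interpolate endpoints linearly. GI50: concentration for 50% inhibition of growth.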 The source made the active and inactive calls. Rule as the data show it: active = GI50 up to about 1.1 µM and inactive = higher.

What was measured:
Experiment in all cases: NCI anticancer screen, dose series, 48 h
786-0 = test system: 786-0
EKVX = test system: EKVX
HCC 2998 = test system: HCC 2998
HCT-15 = test system: HCT-15
HOP-92 = test system: HOP-92
HT-29 = test system: HT-29
K562 = test system: K562
LOX IMVI = test system: LOX IMVI
MCF7 = test system: MCF7
MDA-N = test system: MDA-N
Malme-3M = test system: Malme-3M
NCI-H226 = test system: NCI-H226
NCI-H522 = test system: NCI-H522
OVCAR-3 = test system: OVCAR-3
RPMI-8226 = test system: RPMI-8226
SF-295 = test system: SF-295
SK-MEL-2 = test system: SK-MEL-2
TK-10 = test system: TK-10
UACC-257 = test system: UACC-257
DMS-114 = test system: DMS-114

| Compound | GI50 (786-0) | GI50 (EKVX) | GI50 (HCC 2998) | GI50 (HCT-15) | GI50 (HOP-92) | GI50 (HT-29) | GI50 (K562) | GI50 (LOX IMVI) | GI50 (MCF7) | GI50 (MDA-N) | GI50 (Malme-3M) | GI50 (NCI-H226) | GI50 (NCI-H522) | GI50 (OVCAR-3) | GI50 (RPMI-8226) | GI50 (SF-295) | GI50 (SK-MEL-2) | GI50 (TK-10) | GI50 (UACC-257) | GI50 (DMS-114) |
| --- | --- | --- | --- | --- | --- | --- | --- | --- | --- | --- | --- | --- | --- | --- | --- | --- | --- | --- | --- | --- |
| C=C(NC(=O)C(=C)NC(=O)c1csc(C2=NC3c4csc(n4)C4NC(=O)c5csc(n5)C(C(C)(O)C(C)O)NC(=O)C5CSC(=N5)/C(=C/C)NC(=O)C(C(C)O)NC(=O)c5csc(n5)C3(CC2)NC(=O)C(C)NC(=O)C(=C)NC(=O)C(=C)NC(=O)C(C(C)C)NC2C=Cc3c(C(C)O)cc(nc3C2O)C(=O)OC4C)n1)C(N)=O (stereo not given) | 1.29 µM (inactive) | 3.92 µM (inactive) | 16.1 µM (inactive) | 9.25 µM | 4.67 µM (inactive) | 1.32 µM (inactive) | 0.774 µM (active) | 0.357 µM (active) | 1.33 µM (inactive) | 1.56 µM (inactive) | 0.239 µM (active) | 1.19 µM (inactive) | 0.158 µM (active) | 10.3 µM (inactive) | 1.29 µM (inactive) | 26 µM (inactive) | 2.22 µM (inactive) | 4.18 µM (inactive) | 2.91 µM (inactive) |  |
| Clc1ccc2c(Cl)nc(-c3ccccc3)nc2c1 |  | 11.4 µM (inactive) | 34.8 µM (inactive) |  |  | 26.4 µM (inactive) | 23.4 µM (inactive) |  |  |  | 24.3 µM (inactive) | 13.2 µM (inactive) |  | 17.2 µM (inactive) | 10 µM (inactive) | 25.2 µM (inactive) | 26.4 µM (inactive) | 46.1 µM (inactive) | 26.2 µM (inactive) | 18.6 µM (inactive) |
| O=Cc1cn(C(=O)c2ccccc2)c2ccccc12 | > 100 µM (inactive) | > 100 µM (inactive) | > 100 µM (inactive) | > 100 µM |  | 71.3 µM (inactive) | 70 µM (inactive) |  |  |  | > 100 µM (inactive) | 56 µM (inactive) |  | > 100 µM (inactive) | 37.2 µM (inactive) | 38.1 µM (inactive) | > 100 µM (inactive) | > 100 µM (inactive) | 83 µM (inactive) | 60.1 µM (inactive) |
| CCOC(=O)[C@H]1Nc2ccc(Cl)cc2[C@H]2OCC[C@@H]12 | > 100 µM (inactive) | > 100 µM (inactive) | > 100 µM (inactive) | > 100 µM |  | > 100 µM (inactive) | > 100 µM (inactive) | > 100 µM (inactive) |  |  | > 100 µM (inactive) | > 100 µM (inactive) | > 100 µM (inactive) | > 100 µM (inactive) |  | > 100 µM (inactive) | 75 µM (inactive) | > 100 µM (inactive) | > 100 µM (inactive) | > 100 µM (inactive) |
| COc1cc(OC)c(C#N)c(OC)c1C | > 100 µM (inactive) | > 100 µM (inactive) |  |  | > 100 µM (inactive) | > 100 µM (inactive) | > 100 µM (inactive) | > 100 µM (inactive) |  |  | > 100 µM (inactive) | > 100 µM (inactive) |  |  |  | > 100 µM (inactive) | > 100 µM (inactive) | > 100 µM (inactive) | > 100 µM (inactive) | > 100 µM (inactive) |
| O=C(c1ccccc1)[C@H]1Nc2ccc(Cl)cc2[C@H]2OCCC[C@@H]12 |  | 23.4 µM (inactive) | 22.2 µM (inactive) | 23.1 µM |  | 18.5 µM (inactive) | 22.6 µM (inactive) | 16.7 µM (inactive) |  |  | 25.6 µM (inactive) | 21.3 µM (inactive) | 14.1 µM (inactive) | 14.9 µM (inactive) | 19.3 µM (inactive) | 17 µM (inactive) | 25.4 µM (inactive) | 28.5 µM (inactive) |  | 14.2 µM (inactive) |
| CN(C)CCC(/C=C/c1ccccc1)=N\Nc1c(F)c(F)c(F)c(F)c1F | > 100 µM (inactive) | > 100 µM (inactive) |  | 56.8 µM |  | 27 µM (inactive) | 39.4 µM (inactive) | > 100 µM (inactive) |  |  | 38 µM (inactive) |  | 64.1 µM (inactive) | > 100 µM (inactive) | 24.8 µM (inactive) | 28.6 µM (inactive) | 41.6 µM (inactive) | > 100 µM (inactive) | 26.4 µM (inactive) | 21.7 µM (inactive) |
| O=C1C(Cl)C(c2cc3cc(Br)ccc3nc2Cl)N1c1c(Cl)cccc1Cl (stereo not given) | 12.4 µM (inactive) | 6.32 µM (inactive) | 23.8 µM (inactive) | 13.4 µM | 9.79 µM (inactive) | > 25 µM (inactive) | 7.01 µM (inactive) | 3.66 µM (inactive) | 6.76 µM (inactive) | 9.68 µM (inactive) | > 25 µM (inactive) | 15.8 µM (inactive) | 5.37 µM (inactive) | 18.2 µM (inactive) | 6.78 µM (inactive) | > 25 µM (inactive) | > 25 µM (inactive) | > 25 µM (inactive) | 16.5 µM (inactive) |  |
| Cn1c(=O)sc2cc(C(=S)N3CCOCC3)ccc21 | > 100 µM (inactive) | > 28.8 µM (inactive) | > 100 µM (inactive) | > 92.3 µM | 9.89 µM (inactive) | > 79.3 µM (inactive) | 41.2 µM (inactive) | > 85.7 µM (inactive) | > 100 µM (inactive) | > 100 µM (inactive) | 3.48 µM (inactive) | > 46.9 µM (inactive) | 87.3 µM (inactive) | > 100 µM (inactive) | > 79.8 µM (inactive) | > 100 µM (inactive) | > 100 µM (inactive) | > 100 µM (inactive) | > 100 µM (inactive) |  |
| c1ccc2c(c1)CCCN1CCc3ccccc3C21 (stereo not given) | 80.9 µM (inactive) | 39.9 µM (inactive) | 44.3 µM (inactive) | > 100 µM | 24.9 µM (inactive) | 29 µM (inactive) | 30 µM (inactive) | 29.6 µM (inactive) | > 100 µM (inactive) | 27 µM (inactive) | > 100 µM (inactive) | 33.3 µM (inactive) | > 100 µM (inactive) | > 100 µM (inactive) | 36.2 µM (inactive) | 40.2 µM (inactive) | 96.6 µM (inactive) | 61.4 µM (inactive) | 77.1 µM (inactive) |  |
| N#CC1(C#N)C2=C(CCCC2)NC(c2ccc(Br)cc2)C1(C#N)C#N (stereo not given) | 1.79 µM (inactive) | 12.4 µM (inactive) | 20.5 µM (inactive) | 2.42 µM | 4.76 µM (inactive) | 2.55 µM (inactive) | 0.762 µM (active) | 2.11 µM (inactive) | 5.32 µM (inactive) | 4.26 µM (inactive) | 1.16 µM (inactive) | 20.2 µM (inactive) | 0.927 µM (active) | 6.56 µM (inactive) | 1.91 µM (inactive) | 22.8 µM (inactive) | 15.6 µM (inactive) | 4.44 µM (inactive) | 4.22 µM (inactive) |  |
| CCOC(=O)CC(=O)ON(C)C(=O)Cc1ccccc1 | > 100 µM (inactive) | > 100 µM (inactive) |  | > 100 µM |  | > 100 µM (inactive) |  | > 100 µM (inactive) |  |  | > 100 µM (inactive) | > 100 µM (inactive) | > 100 µM (inactive) | > 100 µM (inactive) | > 100 µM (inactive) | > 100 µM (inactive) | > 100 µM (inactive) | > 10 µM (inactive) | > 100 µM (inactive) | > 100 µM (inactive) |
| Cc1cc(N(CCC#N)CCC#N)ccc1/N=N/c1cccc(C(=O)O)c1 | > 100 µM (inactive) | > 100 µM (inactive) | > 100 µM (inactive) | > 100 µM |  | > 100 µM (inactive) | > 100 µM (inactive) | > 100 µM (inactive) |  |  | 83 µM (inactive) | > 100 µM (inactive) | 38.8 µM (inactive) | 56 µM (inactive) |  | > 100 µM (inactive) | > 100 µM (inactive) | > 100 µM (inactive) | > 100 µM (inactive) | > 100 µM (inactive) |
| O=c1[nH]cnc2c1ncn2[C@H]1CO[C@@H](CO)[C@@H]1O | > 100 µM (inactive) | > 100 µM (inactive) | > 100 µM (inactive) | > 100 µM | > 100 µM (inactive) | > 100 µM (inactive) | > 100 µM (inactive) | > 100 µM (inactive) | > 100 µM (inactive) | > 100 µM (inactive) | > 100 µM (inactive) | > 100 µM (inactive) | > 100 µM (inactive) | > 100 µM (inactive) | > 100 µM (inactive) | > 100 µM (inactive) | > 100 µM (inactive) | > 100 µM (inactive) | > 100 µM (inactive) |  |
| CC(=O)OCCCC(NC(=O)OC(C)(C)C)C(=O)NC(CCCOC(C)=O)C(=O)NC(Cc1ccc([N+](=O)[O-])cc1)C(=O)NCC(=O)OCc1ccccc1 (stereo not given) | 18 µM (inactive) | 18.3 µM (inactive) | 18.9 µM (inactive) | 15.1 µM | 18.4 µM (inactive) | 17.9 µM (inactive) | 23.7 µM (inactive) | 13.1 µM (inactive) | 17.9 µM (inactive) | 15.3 µM (inactive) | 19.9 µM (inactive) | 16.1 µM (inactive) | 18.1 µM (inactive) | 16.5 µM (inactive) | 19.9 µM (inactive) | 11.9 µM (inactive) | 15.4 µM (inactive) | 18.5 µM (inactive) | 15.3 µM (inactive) |  |
| O=C1/C(=C/c2cccc([N+](=O)[O-])c2)CCCc2ccccc21 | 13.7 µM (inactive) | 16 µM (inactive) | 10.3 µM (inactive) | 10.6 µM | 14.4 µM (inactive) | 9.84 µM (inactive) | 3.27 µM (inactive) | 3.4 µM (inactive) | 3.92 µM (inactive) | 9.33 µM (inactive) | 10.3 µM (inactive) | 16.2 µM (inactive) | 4.74 µM (inactive) | 13.6 µM (inactive) | 11.4 µM (inactive) | 14.6 µM (inactive) | 11 µM (inactive) | 15.7 µM (inactive) | 16.6 µM (inactive) |  |
